Measured values published in the NIST ThermoML archive (doi:10.1021/je900091b).
± gives the expanded uncertainty stated by the source.

Assay: xn = mol fraction of the nth substance listed
Settings: Liquid

C=C(C)C(=O)OC [methyl methacrylate] + CCCCn1cc[n+](C)c1.F[P-](F)(F)(F)(F)F
Settings	mass density [kg/m3]	viscosity [mPa·s]
283.15 K, x1 = 0.0986	1360.73 ± 1.7	434.9 ± 64
283.15 K, x1 = 0.2094	1335.27 ± 1.6	218.03 ± 22
283.15 K, x1 = 0.3073	1310.42 ± 1.6	118.57 ± 7
283.15 K, x1 = 0.4053	1282.19 ± 1.5	64.04 ± 1.2
283.15 K, x1 = 0.4977	1250.45 ± 1.3	34.64 ± 0.61
283.15 K, x1 = 0.5993	1211.21 ± 1.2	17.78 ± 0.32
283.15 K, x1 = 0.7009	1164.35 ± 1	8.859 ± 0.18
283.15 K, x1 = 0.8003	1109.1 ± 0.84	3.909 ± 0.089
283.15 K, x1 = 0.9007	1042.12 ± 0.6	1.719 ± 0.041
283.15 K, x1 = 1	954.802 ± 0.57	0.6808 ± 0.018
288.15 K, x1 = 0.0986	1356.38 ± 1.7	308.34 ± 38
288.15 K, x1 = 0.2094	1330.98 ± 1.6	161.21 ± 13
288.15 K, x1 = 0.3073	1306.05 ± 1.5	91.29 ± 3.8
288.15 K, x1 = 0.4053	1277.72 ± 1.4	50.28 ± 0.29
288.15 K, x1 = 0.4977	1245.87 ± 1.3	28.16 ± 0.5
288.15 K, x1 = 0.5993	1206.49 ± 1.2	14.99 ± 0.28
288.15 K, x1 = 0.7009	1159.46 ± 1	7.717 ± 0.16
288.15 K, x1 = 0.8003	1103.97 ± 0.82	3.485 ± 0.079
288.15 K, x1 = 0.9007	1036.71 ± 0.58	1.575 ± 0.038
288.15 K, x1 = 1	949.097 ± 0.58	0.6337 ± 0.017
293.15 K, x1 = 0.0986	1352.04 ± 1.7	224.88 ± 23
293.15 K, x1 = 0.2094	1326.72 ± 1.6	122.32 ± 7.5
293.15 K, x1 = 0.3073	1301.68 ± 1.5	71.8 ± 1.8
293.15 K, x1 = 0.4053	1273.26 ± 1.4	40.3 ± 0.69
293.15 K, x1 = 0.4977	1241.3 ± 1.3	23.27 ± 0.41
293.15 K, x1 = 0.5993	1201.58 ± 1.2	12.81 ± 0.24
293.15 K, x1 = 0.7009	1154.07 ± 1	6.781 ± 0.14
293.15 K, x1 = 0.8003	1098.45 ± 0.8	3.136 ± 0.072
293.15 K, x1 = 0.9007	1031.1 ± 0.56	1.45 ± 0.035
293.15 K, x1 = 1	943.365 ± 0.6	0.5899 ± 0.016
298.15 K, x1 = 0.0986	1347.84 ± 1.7	168.14 ± 14
298.15 K, x1 = 0.2094	1322.45 ± 1.6	94.88 ± 4.2
298.15 K, x1 = 0.3073	1297.32 ± 1.5	55.22 ± 0.48
298.15 K, x1 = 0.4053	1268.81 ± 1.4	32.87 ± 0.57
298.15 K, x1 = 0.4977	1236.75 ± 1.3	19.54 ± 0.35
298.15 K, x1 = 0.5993	1197.09 ± 1.2	11.07 ± 0.21
298.15 K, x1 = 0.7009	1149.69 ± 0.98	6.014 ± 0.13
298.15 K, x1 = 0.8003	1093.72 ± 0.78	2.836 ± 0.065
298.15 K, x1 = 0.9007	1025.87 ± 0.54	1.342 ± 0.033
298.15 K, x1 = 1	937.615 ± 0.61	0.554 ± 0.015
303.15 K, x1 = 0.0986	1343.67 ± 1.7	128.46 ± 8.3
303.15 K, x1 = 0.2094	1318.17 ± 1.6	75.44 ± 2.2
303.15 K, x1 = 0.3073	1292.97 ± 1.5	44.49 ± 0.76
303.15 K, x1 = 0.4053	1264.37 ± 1.4	27.22 ± 0.48
303.15 K, x1 = 0.4977	1232.2 ± 1.3	16.62 ± 0.3
303.15 K, x1 = 0.5993	1192.4 ± 1.1	9.662 ± 0.19
303.15 K, x1 = 0.7009	1144.81 ± 0.97	5.374 ± 0.12
303.15 K, x1 = 0.8003	1088.59 ± 0.77	2.583 ± 0.06
303.15 K, x1 = 0.9007	1020.43 ± 0.52	1.247 ± 0.031
303.15 K, x1 = 1	931.837 ± 0.63	0.5248 ± 0.015
308.15 K, x1 = 0.0986	1339.49 ± 1.7	100.54 ± 4.8
308.15 K, x1 = 0.2094	1313.91 ± 1.6	58.33 ± 0.7
308.15 K, x1 = 0.3073	1288.62 ± 1.5	36.45 ± 0.63
308.15 K, x1 = 0.4053	1259.94 ± 1.4	22.86 ± 0.4
308.15 K, x1 = 0.4977	1227.67 ± 1.3	14.29 ± 0.27
308.15 K, x1 = 0.5993	1187.73 ± 1.1	8.505 ± 0.17
308.15 K, x1 = 0.7009	1139.93 ± 0.95	4.838 ± 0.11
308.15 K, x1 = 0.8003	1083.46 ± 0.75	2.369 ± 0.055
308.15 K, x1 = 0.9007	1014.97 ± 0.5	1.165 ± 0.029
308.15 K, x1 = 1	926.032 ± 0.65	0.4956 ± 0.014
313.15 K, x1 = 0.0986	1335.32 ± 1.6	80.4 ± 2.7
313.15 K, x1 = 0.2094	1309.66 ± 1.5	47.27 ± 0.8
313.15 K, x1 = 0.3073	1284.28 ± 1.5	30.27 ± 0.52
313.15 K, x1 = 0.4053	1255.53 ± 1.4	19.43 ± 0.35
313.15 K, x1 = 0.4977	1223.15 ± 1.2	12.43 ± 0.23
313.15 K, x1 = 0.5993	1183.05 ± 1.1	7.55 ± 0.15
313.15 K, x1 = 0.7009	1135.06 ± 0.93	4.379 ± 0.098
313.15 K, x1 = 0.8003	1078.32 ± 0.73	2.175 ± 0.051
313.15 K, x1 = 0.9007	1009.49 ± 0.48	1.092 ± 0.027
313.15 K, x1 = 1	920.185 ± 0.66	0.4719 ± 0.013
318.15 K, x1 = 0.0986	1331.15 ± 1.6	62.99 ± 1.1
318.15 K, x1 = 0.2094	1305.41 ± 1.5	38.91 ± 0.66
318.15 K, x1 = 0.3073	1279.94 ± 1.4	25.49 ± 0.45
318.15 K, x1 = 0.4053	1251.13 ± 1.3	16.71 ± 0.3
318.15 K, x1 = 0.4977	1218.64 ± 1.2	10.9 ± 0.21
318.15 K, x1 = 0.5993	1178.39 ± 1.1	6.745 ± 0.14
318.15 K, x1 = 0.7009	1130.19 ± 0.92	3.99 ± 0.09
318.15 K, x1 = 0.8003	1073.17 ± 0.71	2.007 ± 0.047
318.15 K, x1 = 0.9007	1004 ± 0.47	1.026 ± 0.026
318.15 K, x1 = 1	914.317 ± 0.68	0.4497 ± 0.013
323.15 K, x1 = 0.0986	1327 ± 1.6	51.32 ± 0.28
323.15 K, x1 = 0.2094	1301.17 ± 1.5	32.45 ± 0.56
323.15 K, x1 = 0.3073	1275.58 ± 1.4	21.7 ± 0.38
323.15 K, x1 = 0.4053	1246.74 ± 1.3	14.51 ± 0.27
323.15 K, x1 = 0.4977	1214.13 ± 1.2	9.64 ± 0.19
323.15 K, x1 = 0.5993	1173.73 ± 1.1	6.066 ± 0.13
323.15 K, x1 = 0.7009	1125.33 ± 0.9	3.653 ± 0.083
323.15 K, x1 = 0.8003	1068.01 ± 0.7	1.868 ± 0.044
323.15 K, x1 = 0.9007	998.489 ± 0.46	0.9687 ± 0.025
323.15 K, x1 = 1	908.405 ± 0.69	0.4294 ± 0.013
328.15 K, x1 = 0.0986	1322.85 ± 1.6	42.36 ± 0.72
328.15 K, x1 = 0.2094	1296.92 ± 1.5	27.39 ± 0.48
328.15 K, x1 = 0.3073	1271.14 ± 1.4	18.69 ± 0.33
328.15 K, x1 = 0.4053	1242.36 ± 1.3	12.71 ± 0.24
328.15 K, x1 = 0.4977	1209.65 ± 1.2	8.585 ± 0.17
328.15 K, x1 = 0.5993	1169.08 ± 1.1	5.497 ± 0.12
328.15 K, x1 = 0.7009	1120.46 ± 0.88	3.362 ± 0.077
328.15 K, x1 = 0.8003	1062.85 ± 0.68	1.743 ± 0.042
328.15 K, x1 = 0.9007	992.98 ± 0.47	0.9201 ± 0.023
328.15 K, x1 = 1	902.468 ± 0.71	0.41 ± 0.012
333.15 K, x1 = 0.0986	1318.71 ± 1.6	35.43 ± 0.61
333.15 K, x1 = 0.2094	1292.66 ± 1.5	23.38 ± 0.41
333.15 K, x1 = 0.3073	1267.36 ± 1.4	16.24 ± 0.29
333.15 K, x1 = 0.4053	1237.99 ± 1.3	11.22 ± 0.21
333.15 K, x1 = 0.4977	1205.17 ± 1.2	7.691 ± 0.16
333.15 K, x1 = 0.5993	1164.44 ± 1	4.991 ± 0.11
333.15 K, x1 = 0.7009	1115.59 ± 0.87	3.111 ± 0.071
333.15 K, x1 = 0.8003	1057.67 ± 0.66	1.629 ± 0.039
333.15 K, x1 = 0.9007	987.485 ± 0.49	0.915 ± 0.023
333.15 K, x1 = 1	896.479 ± 0.73	0.3938 ± 0.012
343.15 K, x1 = 0.0986	1310.46 ± 1.6	25.61 ± 0.45
343.15 K, x1 = 0.2094	1284.51 ± 1.5	17.56 ± 0.32
343.15 K, x1 = 0.3073	1259.32 ± 1.4	12.57 ± 0.23
343.15 K, x1 = 0.4053	1229.29 ± 1.3	8.922 ± 0.18
343.15 K, x1 = 0.4977	1196.23 ± 1.2	6.278 ± 0.13
343.15 K, x1 = 0.5993	1155.17 ± 1	4.187 ± 0.094
343.15 K, x1 = 0.7009	1105.84 ± 0.83	2.708 ± 0.062
343.15 K, x1 = 0.8003	1047.29 ± 0.62	1.431 ± 0.035
343.15 K, x1 = 0.9007	976.413 ± 0.52	0.8545 ± 0.022
343.15 K, x1 = 1	884.418 ± 0.76	0.3636 ± 0.011
353.15 K, x1 = 0.0986	1302.23 ± 1.5	19.25 ± 0.34
353.15 K, x1 = 0.2094	1275.98 ± 1.4	13.65 ± 0.25
353.15 K, x1 = 0.3073	1250.71 ± 1.3	10.01 ± 0.19
353.15 K, x1 = 0.4053	1220.62 ± 1.2	7.259 ± 0.15
353.15 K, x1 = 0.4977	1187.32 ± 1.1	5.224 ± 0.12
353.15 K, x1 = 0.5993	1145.91 ± 0.98	3.579 ± 0.081
353.15 K, x1 = 0.7009	1096.08 ± 0.8	2.415 ± 0.056
353.15 K, x1 = 0.8003	1036.87 ± 0.59	1.272 ± 0.031
353.15 K, x1 = 0.9007	965.13 ± 0.55	0.781 ± 0.02
353.15 K, x1 = 1	872.129 ± 0.8	0.3398 ± 0.011
